Assay results taken from patent publication US7264956B2, “Compounds and methods for inhibiting axillary malodour” (Givaudan SA, priority 2001, dated 2007).
“Also recorded” adds a separate entry of the source. Where two headings read alike, the source gives them in different places.

How the values were obtained:
[1] = molecular target: T1, purified enzyme obtained from E.coli Top 10/pBADgIII AMRE (Corynebacterium striatum, UniProt Q8GGD4); assay: High throughput screening for inhibitors (fluorescamine assay of released L-glutamine); assay type: biochemical; details: substrate Nα-lauroyl-L-glutamine 0.05 mM; Ki calculated from IC50
T1 construct: made in house; host or cells: E. coli TOP10 (Invitrogen), vector pBADgIIIA, arabinose-induced
T1 sequence (Q8GGD4 2-400): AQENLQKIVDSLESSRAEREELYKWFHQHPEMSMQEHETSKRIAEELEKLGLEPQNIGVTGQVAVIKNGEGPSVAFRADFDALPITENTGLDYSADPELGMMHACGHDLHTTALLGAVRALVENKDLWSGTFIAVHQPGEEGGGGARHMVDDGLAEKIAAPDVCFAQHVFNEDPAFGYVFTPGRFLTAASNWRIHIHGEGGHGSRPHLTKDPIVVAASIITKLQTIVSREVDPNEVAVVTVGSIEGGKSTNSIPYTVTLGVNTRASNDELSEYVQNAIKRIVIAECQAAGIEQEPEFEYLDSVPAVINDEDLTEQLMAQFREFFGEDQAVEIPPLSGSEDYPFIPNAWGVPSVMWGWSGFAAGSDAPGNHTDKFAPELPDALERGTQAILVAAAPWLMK
Source text: Compounds, which inhibit an enzyme of the present invention reduce the activity of the enzyme and may lead to a significant reduction of the release of malodour acids from odourless fresh sweat. […] The activity of the compounds as inhibitors may be measured in terms of either their IC50 values or their Ki values, both of which measures are well known to the person skilled in the art. As is well known, the IC50 value provides the concentration of an inhibitor needed to reduce enzyme velocity by half at a given substrate concentration. This value is dependent on the affinity of the substrate for the enzyme which is reflected in the value Km of the substrate. In this way, the Ki value may be determined for a given substrate and a given substrate concentration by measuring IC50 and then calculating according to the following formula
Potential inhibitory compounds were dissolved in Buffer A and aliquots of the solutions of different inhibitors (10 μl) were distributed to individual wells of a white microtiter plate. Purified enzyme obtained from the strain E.coli Top 10/pBADgIII AMRE was diluted in Buffer A (200 pg/ml final concentration) and added to the inhibitory compounds. After 10 min preincubation, the substrate (Nα-lauroyl-L-glutamine) was added to the individual wells to a final concentration of 0.05 mM. After 15 min of incubation, the amino-group of the released L-glutamine was derivatised by adding to each well of the microtiter plate 50 μl of a fluorescamine stock solution (2.5 mM in acetonitrile; fluorescamine obtained from Fluka, Buchs, Switzerland). After 5 min the fluorescence in the wells of the microtiter plates was measured with an excitation wavelength of 360 nm and an emission wavelength of 460 nm. The fluorescence of control wells with enzyme, substrate and DMSO only was then compared to the fluorescence in wells containing potential inhibitors. By varying the inhibitor concentration, the IC50 value for each compound was determined, and the Ki values were calculated.

[2] = molecular target: T2, purified enzyme from Corynebacterium striatum A×20 (Corynebacterium striatum, UniProt Q8GGD4); assay type: biochemical; details: for enzyme activity after incubation with serin-/cystein protease inhibitor: purified enzyme
T2 construct: an enzyme may be isolated from cellular extracts obtained from wild-type bacterial strains; endogenous in cells; host or cells: Corynebacterium striatum Ax20 (DSM 14267), mechanically disrupted; crude extract or chromatographically purified enzyme
T2 sequence (Q8GGD4 2-400): as above
Experimental: Corynebacterium striatum A×20 was selected to isolate and purify the enzyme responsible for the cleavage of the precursor Nα-3-hydroxy-3-methyl-hexanoyl-L-glutamine. The strain was grown during 48 h in Mueller-Hinton broth amended with 0.01% Tween 80. A total volume of 2 L of culture was harvested by centrifugation. The pellet was washed in Buffer A (50 mM NaCl; 50 mM NaH2PO4/K2HPO4 buffer at pH 7) and this buffer was used throughout the whole purification procedure. The cells were disrupted mechanically by vortexing them with glass beads (425–600 μm, Sigma, St-Louis, USA) during 30 min at maximal speed. The crude cell lysate was then fractionated by precipitation with an increasing concentration of (NH4)2SO4. […] This enriched sample was dissolved in Buffer A and then sequentially passed over four chromatography columns: DEAE Sepharose CL-6B anion exchange resin (Pharmacia, Uppsala, Sweden; elution with a linear gradient from 0 to 800 mM KCI); Phenyl-Sepharose hydrophobic interaction resin (Pharmacia; elution with a linear gradient from 1000 mM to 0 mM of (NH4)2SO4; Mono Q strong anion exchange column on the FPLC system (Pharmacia; elution with a gradient from 0 to 800 mM KCl) and finally Mono P weak anion exchange column on the FPLC (elution with a gradient from 0–800 mM KCl in a 50 mM Bis-Tris buffer instead of Buffer A). […] Finally, the enzyme was subjected to LC-ESI-MS/MS analysis after tryptic digestion and to analysis of its N-terminal amino acid sequence.

[3] = molecular target: T3, enzyme extracted from Corynebacterium striatum A×20 (AMRE, Nα-acyl-glutamine-aminoacylase) (Corynebacterium striatum, UniProt Q8GGD4); assay: Substrate specificity of the enzyme (capillary GC of released acid or alcohol); assay type: biochemical; details: for Cleavage by enzyme: 500 ppm in Buffer A, 24 h incubation
T3 construct: an enzyme may be isolated from cellular extracts obtained from wild-type bacterial strains; endogenous in cells; host or cells: Corynebacterium striatum Ax20 (DSM 14267), mechanically disrupted; crude extract or chromatographically purified enzyme
T3 sequence (Q8GGD4 2-400): as above
Experimental: To understand in detail the structural requirements of substrates, the enzyme extracted from Corynebacterium striatum A×20 was incubated with a wide variety of said compounds related to the originally isolated Nα-3-methyl-3-hydroxy-hexanoyl-L-glutamine present in sweat. Each compound was used at a concentration of 500 ppm in Buffer A, and analysis of released acid or alcohol was done by capillary GC after 24 h of incubation. First, different modifications at the N-terminus were tested.

[4] = tested on: other Corynebacteria and some Staphylococci; assay: Release of lauric acid from Nα-lauroyl-L-glutamine by axilla bacteria; assay type: cell-based; details: same experiment as Table 1, Nα-lauroyl-L-glutamine as substrate
Experimental: The axillary flora of 8 panellists was isolated with the detergent-scrub method: A 6 cm^2 area of the axilla was scrubbed with a phosphate buffer at pH 7 containing 1% Tween 80. The samples were spread-plated on tryptic soy agar amended with 5 g/L of Tween 80 and 1 g/L of lecithin. Single isolates obtained after 48 h incubation were subcultured and characterised. A total of 24 individual strains were identified based on colony and cell morphology, gram-reaction, lipophilic growth, lipase reaction and API identification kits (bioMerieux, France; coryneforms with the API coryne kit and cocci with the ID Staph 32 kit). The strains were grown overnight in a liquid medium (Mueller-Hinton amended with 0.01% Tween 80), harvested by centrifugation and resuspended to a final OD600 of 1 in a semi-synthetic medium (Per litre: 3 g KH2PO4, 1.9 g K2HPO4, 0.2 g yeast extract, 0.2 g MgSO4, 1.4 g NaCl, 1 g NH4Cl, 10 mg MnCl2, 1 mg Fe3Cl2, 1 mg CaCl2). […] The Corynebacteria which are able to conduct this biochemical reaction may be found in the group of the lipophilic and in the group of the non-lipophilic Corynebacteria. Therefore, a specific enzyme only present in some bacterial strains seems to be responsible for this cleavage. Since it releases axilla malodour the putative enzyme was named AMRE, which stands for ‘axillary malodour releasing enzyme’. […]

[5] = molecular target: T4, enzyme activity in living cells of A×20 (Corynebacterium striatum, UniProt Q8GGD4); assay: Low throughput screening for inhibitors, stationary phase living cells of A×20; assay type: cell-based; details: 5 mM; substrate Nα-lauroyl-L-glutamine, 2 h
T4 construct: stationary phase living cells of A×20; endogenous in cells; host or cells: Corynebacterium striatum Ax20, stationary-phase living cells
T4 sequence (Q8GGD4 2-400): as above
Experimental: (§1) Extracts of A×20 were prepared by mechanical disruption as described in Example 3. The extract (0.5 ml corresponding to 2 ml initial cell culture) was added to 3.5 ml of Buffer A and amended with 40 μl of substrate (Nα-lauroyl-L-glutamine, 5% stock solution in methanol). Parallel samples were additionally amended with potential inhibitory compounds to give a final concentration of 0.5 and 5 mM. The samples were incubated for 2 h and then extracted with MTBE and HCI and analysed for released lauric acid using capillary GC. By comparing the samples containing potential inhibitory compounds with control samples with enzyme and substrate only, the inhibition (%) was calculated. The same assay was also made either with purified enzyme from the wild-type strain (see example 3) or with extracts from E.coli Top 10/pBADgIII AMRE induced with arabinose (see example 6). Furthermore, the same assay was made using stationary phase living cells of A×20 instead of an isolated enzyme preparation. In this case successful uptake of the inhibitors into the cells and inhibition are measured simultaneously.

[6] = molecular target: T5, isolated enzyme (extracts of A×20) (Corynebacterium striatum, UniProt Q8GGD4); assay: Low throughput screening for inhibitors, isolated enzyme (released lauric acid by GC); assay type: biochemical; details: substrate Nα-lauroyl-L-glutamine, 2 h
T5 construct: an enzyme may be isolated from cellular extracts obtained from wild-type bacterial strains; endogenous in cells; host or cells: Corynebacterium striatum Ax20 (DSM 14267), mechanically disrupted; crude extract or chromatographically purified enzyme
T5 sequence (Q8GGD4 2-400): as above
Experimental: as §1

[7] = molecular target: T6, enzyme heterologously expressed in E. coli TOP10 (pBADgIIIAMRE) (Corynebacterium striatum, UniProt Q8GGD4); assay: Enzyme assay with extracts of E. coli expressing the enzyme (release of lauric acid); assay type: biochemical; details: 500 ppm substrate
T6 construct: made in house; host or cells: E. coli TOP10 (Invitrogen), vector pBADgIIIA, arabinose-induced
T6 sequence (Q8GGD4 2-400): as above
Source text: The full-length sequence of the open reading frame coding for the enzyme was amplified with PCR from chromosomal DNA of A×20 using specific primers (SEQ ID NO 14 and SEQ ID NO 15). The amplified DNA fragment was then digested with the restriction enzymes NcoI and Hind III It was then ligated into the vector pBADIIIA (Invitrogen, Groningen, The Netherlands) pre-digested with the same enzymes. The resulting plasmid pBADgIIIAMRE was transformed into the host strain E. coli TOP10 (Invitrogen). This strain was grown in LB broth until it reached an optical density of about 0.5 at 600 nm. The culture was induced with arabinose (0.2% final concentration) incubated for 4 h, harvested by centrifugation and disrupted by ultrasonication. Enzyme assays with Na-lauryl-Glutamine as substrate were performed in Buffer A with an incubation time of 1 h and a substrate concentration of 500 ppm. Table 3 gives the activity of extracts obtained from wild-type cells and from extracts of the induced and non-induced modified strains expressing the enzyme.

## CCCCP(=O)(O)CC(CCC(N)=O)C(=O)O (stereo not shown) [Compound 8c]
[1]
  Ki: 110 ± 10 nM

## CC(C)CP(=O)(O)CC(CCC(N)=O)C(=O)O (stereo not shown) [Compound 8b]
[1]
  Ki: 58 ± 4 nM

## O=C(O)CN(CCN(CC(=O)O)CC(=O)O)CC(=O)O [EDTA]
[2]
  inhibition of the enzyme: completely inhibited

## NC(=O)C[C@H](NC(=O)OCc1ccccc1)C(=O)O [compound 12, Carbobenzyloxy-L-asparagine]
other
  melting point: 102 to 104 °C
[3]
  Cleavage by enzyme: −

## CC(C)C[C@H](S)C(=O)N[C@@H](CCC(N)=O)C(=O)O [Compound 5b]
[1]
  Ki: 130 ± 10 nM

## CCCCCCCCCCCC(=O)N[C@@H](CCC(N)=O)C(=O)O [Nα-lauroyl-L-glutamine]
[3]
  cleavage of substrate by enzyme (in words): able to be cleaved; also recorded: can cleave
[4]
  release of lauric acid from substrate by axilla bacteria: can release lauric acid

## CCCC[C@H](S)C(=O)N[C@@H](CCC(N)=O)C(=O)O [Compound 5c]
[1]
  Ki: 410 ± 20 nM

## c1cnc2c(c1)ccc1cccnc12 [o-phenantrolin]
[5]
  % inhibition of enzyme activity in living cells: 90.3%
[6]; 0.5 mM
  % inhibition of the isolated enzyme: 100%
[6]; 5 mM
  % inhibition of the isolated enzyme: 100%
[2]; 1 mM
  inhibition of the enzyme: completely inhibited

## NCCc1ccc(S(=O)(=O)F)cc1 [Pefabloc SC, 4-(2-aminoethyl)-benzenesulfonylfluoride]
[2]
  enzyme activity after incubation with serin-/cystein protease inhibitor: retained all its activity

## NC(=O)CCC(CP(=O)(O)Cc1ccccc1)C(=O)O (stereo not shown) [Compound 8a]
[1]
  Ki: 50 ± 3 nM

## NC(=O)CC[C@H](NC(=O)[C@@H](S)Cc1ccccc1)C(=O)O [Compound 5a]
[1]
  Ki: 54 ± 1 nM

## [Cl-].[Cl-].[Zn+2] [ZnCl2]
[2]; addition of 1 mM
  reversal of EDTA / o-phenantrolin inhibition: could be reversed

## O=S(=O)(F)Cc1ccccc1 [PMSF, Phenylmethylsulfonylfluoride]
[2]
  enzyme activity after incubation with serin-/cystein protease inhibitor: retained all its activity

## CCCCCCCCCCCC(=O)N[C@@H](CCC(N)=O)C(=O)O [compound 2, Nα-lauroyl-L-glutamine]
[7]; extract of E. coli Top 10 (wild-type), 4 h after induction
  release of lauric acid from Lauryl-Glutamine, 1 h incubation: below detection
[7]; extract of E. coli Top 10/pBADgIIIAMRE not induced
  release of lauric acid from Lauryl-Glutamine, 1 h incubation: 23 ppm
[7]; extract of E. coli Top 10 induced, 4 h after induction
  release of lauric acid from Lauryl-Glutamine, 1 h incubation: 329 ppm
[3]
  Cleavage by enzyme: +++ (+++ cleavage over 50%)
